The values below are quoted from earlier work in patent publication US20150065582A1, “Orally Dissolving Formulations of Memantine” (Forest Laboratories Holdings Limited, priority 2006, published 2015).

Molecules are shown by their SMILES. Counter-ions that a name gives are not always drawn.

The conditions of data set [1]: oral administration of immediate release tablets.

Consider `CC12CC3CC(C)(C1)CC(N)(C3)C2` [memantine, 1-amino-3,5-dimethyl adamantane], for which, in data set [1], the absolute bioavailability result is given as “approximately 100%”.
Regarding `CC12CC3CC(C)(C1)CC(N)(C3)C2` [Memantine HCl], the “solubility (classification)” value is recorded as “highly soluble”.
